Measured values reported in patent US10017475B2, “Anti-vasculature and anti-tubulin combretastatin analogs for treatment of cancer” (XAVIER UNIVERSITY OF LOUISIANA, priority 2014, dated 2018).
Entries after “also recorded” stand apart in the source; their conditions may differ. Like-named read-outs stand apart in the source and are kept apart here.

What was measured:
MDA-MB-231 cells [1] = test: Immunofluorescence of interphase microtubules; assay type: cell-based, human; conditions: 1 μM, 24 h
Method: (§1) MDA-MB-231 and HeLa cells were grown on a Laboratory-Tek chamber slide (VWR International, Radnor, Pa.) and treated with vehicle (DMSO) or 1 μM CA-4 or 4h for 24 hours to 4 days. At the completion of treatment, cells were fixed with 3.7% formaldehyde and permeabilized with 0.1% Triton X-100 in PBS for 4 min. The cells were first incubated for 1 h in a solution of PBS containing 1% BSA and calf serum to block nonspecific antibody binding. The cells were then incubated with the mouse anti-tubulin antibody (1:200) (Life Technologies, Grand Island, N.Y.), washed 3 times in PBS containing 1% BSA and incubated for 2 h at room temperature with secondary goat antimouse antibody Alexa 488 labeled (1:200) for tubulin staining. The chamber slides were examined and photographed using a Nikon ES800 fluorescence microscope with a digital camera.
(§2) To determine the microtubule disrupting effects of the pyridine-linked analogs, compound 4h was selected as a representative compound in a cell-based phenotypic screening. HeLa and MDA-MB-231 cells were used to examine the effect of 4h on the reorganization of microtubules during mitosis. Cells were treated with either 4h or CA-4 for 24 h, and microtubules were visualized by indirect immunofluorescence techniques. An antibody for β-tubulin was used to visualize interphase and mitotic microtubule structures.
(§3) At FIG. 37 the effects of CA-4 and 4h on interphase microtubules are shown. MDA-MB-231 and HeLa cells were treated with vehicle (A, D) or 1 μM compounds (B, C and E, F) as indicated for 24 hours. Cells were then fixed and microtubules visualized by indirect immunofluorescence techniques. Normal interphase microtubules are visible in the control cells of HeLa and MDA-MB-231. The loss of interphase microtubules induced by CA-4 and 4h is shown in respective treatments as labeled.

HeLa cells [2] = test: Immunofluorescence of interphase microtubules; assay type: cell-based, human; conditions: 1 μM, 24 h
Method: as §1, §2, §3

[3] = tested on: chick embryo chorioallantoic membrane; test: Chick embryo chorioallantoic membrane (CAM) anti-angiogenesis assay; assay type: in vivo; conditions: for Angiogenesis score (scale 0-3) versus positive control BV (bFGF+VEGF): collagen onplant with bFGF+VEGF on CAM, four days
Method: Fertilized embryos were obtained from Charles River Laboratories and incubated at 37.5° C. for 3 days, removed from their shell using a Dremel tool and placed into a covered weighing boat for 10 further days of incubation. Solidified 30 µL onplants containing 2.1 mg/mL rat tail collagen (BD Biosciences, Bedford, Mass.) and 10 ng/mL bFGF and 30 ng/mL VEGF in the presence or absence of CA-4 and 4s were placed on the embryo chorioallantoic membrane (CAM) over two pieces of nylon mesh approximately 0.5 cm^2. Four collagen onplants were added per egg on at least 3 separate eggs. After four days of incubation, images were taken of each plug on surviving embryos using a mini-Vid camera (LW Scientific; Lawrenceville, Ga.) and quantified in a masked fashion on a scale from 0-3 with 0 representing no angiogenesis and 3 representing extreme angiogenesis. Data from one scorer (confirmed by a second scorer) are presented as the means±standard errors of the mean. Statistical significances were determined by one-way analysis of variance (ANOVA) followed by Dunnett's multiple comparison test (GraphPad Prism, La Jolla, Calif.).
In this test the vascular system of a fertilized chicken embryo is used as a model. […] The anti-angiogenesis activity of 4s and CA-4 were determined by the suppression of angiogenic action of BV (bFGF+VEGF) when the compound was added to a collagen containing BV and placed on the chorioallantoic membrane of […] chick embryos for four days. Angiogenesis was scored by two scorers in a blinded fashion.

MDA-MB-231 cells [4] = test: Cytofluorimetric analysis of cell cycle distribution; assay type: cell-based, human; conditions: 1 μM, 24 h
Method: Cells treated with tested compounds for 24 h were washed once in PBS and resuspended in 1 mL of 70% ice cold ethanol and stored at −20° C. Fixed cells were washed twice in PBS and then treated with 1 mL of 0.1 mg/mL of RNase. A solution at 37° C. for 1 h. DNA was then stained with a PBS solution containing 0.1 mg/mL propidium iodide for 30 min at room temperature in the dark. Cell cycle analysis was determined with Accuri C6 (BD Biosciences, Mountain View, Calif.).
Similar results were obtained when another metastatic cancer cell line, MDA-MB-231 was used to test the effect of these compounds on cell cycle arrest.

HeLa cells [5] = test: as above; assay type: cell-based, human; conditions: 1 μM, 24 h
Method: Cells treated with tested compounds for 24 h were washed once in PBS and resuspended in 1 mL of 70% ice cold ethanol and stored at −20° C. Fixed cells were washed twice in PBS and then treated with 1 mL of 0.1 mg/mL of RNase. […] DNA was then stained with a PBS solution containing 0.1 mg/mL propidium iodide for 30 min at room temperature in the dark. Cell cycle analysis was determined with Accuri C6 (BD Biosciences, Mountain View, Calif.).

HeLa = test: Antiproliferative assay (resazurin, 72 h); assay type: cell-based, human; conditions: 72 h incubation, read-out: Growth Inhibition IC50 HeLa
Method: (§4) Cells were seeded in 96-well plates (5×10^3 cells/well) containing 50 μL growth medium for 24 hours. After medium removal, 100 μL fresh medium containing individual analog compound at different concentrations was added to each well and incubated at 37° C. for 72 h. […] After 72 h of incubation, 20 μL of resazurin was added for 2 h before recording fluorescence at 560 nm (excitation) and 590 nm (emission) using a Victor microtiter plate fluorimeter (Perkin-Elmer, USA).

A549 = test: Antiproliferative assay (resazurin, 72 h); assay type: cell-based, human; conditions: A549, 72 h incubation, read-out: Growth Inhibition IC50 A549
Method: as §4

MDA-MB-231 = test: Antiproliferative assay (resazurin, 72 h); assay type: cell-based, human; conditions: MDA-MB-231, 72 h incubation, read-out: Growth Inhibition IC50 MDA-MB-231
Method: as §4

bovine brain tubulin = test: Tubulin polymerization assay; conditions: compared to vehicle (DMSO)
Method: It is based on the principal that light is scattered by microtubules to an extent that is proportional to the concentration of the microtubule polymer. Compounds that interact with tubulin will alter the polymerization of tubulin, and this can be detected using a spectrophotometer. The absorbance at 340 nm at 37° C. is monitored. The experimental procedure of the assay was performed as described in version 8.2 of the tubulin polymerization assay kit manual. Varying concentrations of compounds were preincubated with 10 μM bovine brain tubulin in glutamate buffer at 30° C. and then cooled to 0° C. After the addition of 0.4 mM GTP, the mixtures were transferred to 0° C. cuvettes in a recording spectrophotometer and warmed to 30° C. Tubulin assembly was followed turbidimetrically at 350 nm.
The reaction was initiated by the addition of tubulin to a final concentration of 3.0 mg/mL

Row | Compound | Inhibition of tubulin polymerization (bovine brain tubulin; compound at 10 μM) | melting point | IC50 (HeLa; Homo sapiens, 72 h) | IC50 (A549; Homo sapiens, A549, 72 h) | IC50 (MDA-MB-231; Homo sapiens, MDA-MB-231, 72 h) | also measured
1 | COc1ccc(/C=C\c2cc(OC)c(OC)c(OC)c2)cc1O [CA-4, Combretastatin A4, reference compound] | nearly completely blocked tubulin polymerization | – | – | – | – | Effect on interphase microtubule network (MDA-MB-231 cells [1]): very similar loss of the microtubule network; Effect on interphase microtubule network (HeLa cells [2]): very similar loss of the microtubule network; Effect on new vessel growth ([3]; CAM, 4 days after treatment): inhibition of new vessel growth and vessel shrinkage; Angiogenesis score (scale 0-3) versus positive control BV (bFGF+VEGF) [3]: scored significantly lower than the positive control; Cell cycle distribution G0/G1 (MDA-MB-231 cells [4]): 27.50%; Cell cycle distribution G2/M (MDA-MB-231 cells [4]): 57.80%; Cell cycle distribution S (MDA-MB-231 cells [4]): 11.80%; Cell cycle distribution G0/G1 (HeLa cells [5]): 37.00%; Cell cycle distribution G2/M (HeLa cells [5]): 44.6%; Cell cycle distribution S (HeLa cells [5]): 16.70%; IC50 (HeLa): 0.9 nM; IC50 (A549): 3.8 nM; IC50 (MDA-MB-231): 2.8 nM; Inhibition of tubulin polymerization (bovine brain tubulin; compound at 1 μM): 35%
2 | COc1ccc(-c2cccc(-c3cc(OC)c(OC)c(OC)c3)n2)c(OC)c1 [Compound 4g, 2-(2,4-Dimethoxyphenyl)-6-(3,4,5-trimethoxyphenyl)pyridine] | – | 115 to 117 °C | 4430 nM | 690 nM | > 100000 nM | –
3 | COc1ccc(-c2cccc(-c3ccc(OC)cc3OC)n2)cc1 [Compound 4h, 2-(2,4-Dimethoxyphenyl)-6-(4-methoxyphenyl)pyridine] | remained ineffective against tubulin polymerization | – | 3.8 nM | 89 nM | 3.1 nM | Effect on interphase microtubule network (MDA-MB-231 cells [1]): dramatic reduction of the interphase microtubule network; Effect on interphase microtubule network (HeLa cells [2]): dramatic reduction of the interphase microtubule network; Cell cycle distribution G0/G1 (MDA-MB-231 cells [4]): 13.10%; Cell cycle distribution G2/M (MDA-MB-231 cells [4]): 70.5%; Cell cycle distribution S (MDA-MB-231 cells [4]): 16.40%; Cell cycle distribution G0/G1 (HeLa cells [5]): 10.30%; Cell cycle distribution G2/M (HeLa cells [5]): 73.4%; Cell cycle distribution S (HeLa cells [5]): 15.40%; Inhibition of tubulin polymerization (bovine brain tubulin; compound at 1 μM, 1 µM): failed to inhibit tubulin polymerization; also recorded: slightly stimulating tubulin polymerization
4 | COc1ccc(-c2ccc(-c3cc(OC)c(OC)c(OC)c3)nc2)cc1OC [Compound 4i, 5-(3,4-Dimethoxyphenyl)-2-(3,4,5-trimethoxyphenyl)pyridine] | – | 131 to 132 °C | > 25000 nM | > 50000 nM | > 50000 nM | –
5 | COc1ccc(-c2cccc(-c3ccc(O)cc3)n2)cc1 [Compound 4j, 4-(6-(4-Methoxyphenyl)pyridine-2-yl)phenol] | – | 133 to 134 °C | > 50000 nM | > 25000 nM | > 25000 nM | –
6 | COc1ccc(-c2cccc(-c3ccc(O)cc3)n2)c(OC)c1 [Compound 4k, 4-(6-(2,4-Dimethoxyphenyl)pyridine-2-yl)phenol] | – | 112 to 114 °C (dec.) | > 100000 nM | 4220 nM | 17200 nM | –
7 | COc1ccc(-c2cccc(-c3cccc(OC)c3OC)n2)c(OC)c1 [Compound 4n, 2-(2,3-Dimethoxyphenyl)-6-(2,4-dimethoxyphenyl)pyridine] | – | 79 to 80 °C | > 52000 nM | > 51000 nM | > 50000 nM | –
8 | COc1ccc(-c2cccc(-c3c(OC)cccc3OC)n2)c(OC)c1 [Compound 4o, 2-(2,4-Dimethoxyphenyl)-6-(2,6-dimethoxyphenyl)pyridine] | – | 155 to 156 °C | > 50000 nM | > 100000 nM | > 100000 nM | –
9 | COc1ccc(-c2cccc(-c3c(OC)cc(OC)cc3OC)n2)c(OC)c1 [Compound 4q, 2-(2,4-Dimethoxyphenyl)-6-(2,4,6-trimethoxyphenyl)pyridine] | – | 144 to 145 °C | > 25000 nM | > 50000 nM | > 50000 nM | –
10 | COc1ccc(-c2cccc(-c3ccc(OC)c(O)c3)n2)c(OC)c1 [Compound 4s, 5-(6-(2,4-Dimethoxyphenyl)pyridine-2-yl)-2-methoxyphenol] | 57% | 142 to 144 °C | 1.4 nM | 44 nM | 4.6 nM | Anti-angiogenesis activity compared with CA-4 ([3]; CAM, 4 days after treatment): more effective than CA-4 in suppressing new vessel growth; Effect on new vessel growth ([3]; CAM, 4 days after treatment): inhibition of new vessel growth and vessel shrinkage; Angiogenesis score (scale 0-3) versus positive control BV (bFGF+VEGF) [3]: scored significantly lower than the positive control; Cell cycle distribution G0/G1 (MDA-MB-231 cells [4]): 18.60%; Cell cycle distribution G2/M (MDA-MB-231 cells [4]): 54.1%; Cell cycle distribution S (MDA-MB-231 cells [4]): 17.10%; Cell cycle distribution G0/G1 (HeLa cells [5]): 12.10%; Cell cycle distribution G2/M (HeLa cells [5]): 70.6%; Cell cycle distribution S (HeLa cells [5]): 17.10%; Inhibition of tubulin polymerization (bovine brain tubulin; compound at 1 μM): failed to inhibit tubulin polymerization
11 | COc1ccc(-c2cccc(-c3cc(OC)c(OC)c(OC)c3)n2)cc1O [Compound 4t, 2-Methoxy-5-(6-(3,4,5-trimethoxyphenyl)pyridine-2-yl)phenol] | 32% | 129 to 130 °C | 4.7 nM | 2640 nM | 69 nM | Inhibition of tubulin polymerization (bovine brain tubulin; compound at 1 μM): failed to inhibit tubulin polymerization
